The record followed here is PubChem BioAssay (NCI).

Test systems include BT-549 breast; 786-0 renal; HS 578T breast; A498 renal; SW-620 colon; T-47D breast; DU-145 prostate; COLO 205 colon; SNB-19 CNS; SF-539 CNS.
Test in all cases: NCI-60 cell line screen, 48 h

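Dose response: 5 concentrations. Exposure: 48 h. Format: 96-well plates. Endpoint: linear interpolation; highest concentration if not reached. Definition used: TGI = concentration required for complete inhibition of growth.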

Take `Cc1c(C)c(C)c(CSC(=N)N)c(C)c1C`: the TGI in the test with BT-549 breast came out at 30.7 µM; in the test with 786-0 renal, 32.9 µM; in the test with HS 578T breast, 36.4 µM; with A498 renal it was 29.8 µM; with SW-620 colon, 29 µM; in the test on T-47D breast it was 36.6 µM. Moreover, the TGI in the test with DU-145 prostate was 31.6 µM; with COLO 205 colon, 28.1 µM; in the test with SNB-19 CNS it was 27.9 µM; in the test with SF-539 CNS it was 29.1 µM.
For `C(=N/Nc1ccccn1)/c1cccnc1`, the TGI in the test on BT-549 breast, in the test with 786-0 renal, in the test on HS 578T breast, in the test with A498 renal, with SW-620 colon and in the test on T-47D breast was over 100 µM in each case. The TGI in the test with DU-145 prostate, in the test with COLO 205 colon, with SNB-19 CNS and with SF-539 CNS was over 100 µM each time.
As to `CCCCN1C(=O)C[C@H]2[C@@H]3CCc4cc(OCCN5CCCC5)ccc4[C@H]3CC[C@]2(C)C1=O`, the TGI with BT-549 breast was 26.6 µM; in the test on 786-0 renal, 9.64 µM; in the test on HS 578T breast, 39.8 µM; with A498 renal it was 29.4 µM; with SW-620 colon, 25.1 µM; in the test on T-47D breast it was 30.4 µM. Also, the TGI with DU-145 prostate came to 27 µM; in the test on COLO 205 colon, 3.95 µM; in the test with SNB-19 CNS it was 26.5 µM; with SF-539 CNS, 21.4 µM.
`CC(C)C(/C=C/c1ccc(Cl)cc1)=N\NC(=S)NN`: the TGI with BT-549 breast is over 100 µM; with 786-0 renal it was over 100 µM; in the test with HS 578T breast, 72.3 µM; with A498 renal it was over 100 µM; in the test on SW-620 colon it was over 100 µM; with T-47D breast, over 100 µM. Moreover, the TGI in the test on DU-145 prostate, in the test with COLO 205 colon, in the test with SNB-19 CNS and in the test on SF-539 CNS was over 100 µM each time.
For `Cc1ccc(OCCn2cc(Nc3ccccc3)c(=O)[nH]c2=O)cc1`, the TGI in the test with BT-549 breast, with 786-0 renal, in the test with HS 578T breast, in the test with A498 renal, with SW-620 colon and in the test with T-47D breast was over 100 µM each time. Moreover, the TGI in the test on DU-145 prostate, in the test on COLO 205 colon, in the test with SNB-19 CNS and in the test on SF-539 CNS was over 100 µM each time.
On to `Nc1nc(Cl)cc(NCC2(CO)CCC(OCc3ccccc3)C2)n1` (stereo not given), for which the TGI is 80.1 µM with BT-549 breast; over 100 µM in the test on 786-0 renal; 43.9 µM with HS 578T breast; 44.4 µM in the test with A498 renal; over 100 µM in the test with SW-620 colon; 52.7 µM in the test on T-47D breast. The TGI in the test on DU-145 prostate is over 100 µM; in the test on COLO 205 colon it was 62.7 µM; with SNB-19 CNS, over 100 µM; with SF-539 CNS, over 100 µM.
For `c1ccc(-c2cc(-c3cc(-c4ccccc4)no3)on2)cc1`, the TGI with BT-549 breast, with 786-0 renal, in the test on HS 578T breast, with A498 renal, in the test with SW-620 colon and in the test on T-47D breast was over 100 µM throughout. The TGI is over 100 µM with DU-145 prostate, over 100 µM with COLO 205 colon, over 100 µM in the test on SNB-19 CNS and 33.4 µM with SF-539 CNS.
On to `O=C(NC1CCN(Cc2ccccc2)CC1)c1ccccc1I`, for which the TGI with BT-549 breast is over 100 µM; in the test with 786-0 renal, 63.4 µM; with HS 578T breast, 50.2 µM; in the test with A498 renal, over 100 µM; in the test on SW-620 colon, 38.9 µM; in the test with T-47D breast, 66.1 µM. The TGI in the test with DU-145 prostate was over 100 µM; with COLO 205 colon, 34.8 µM; in the test on SNB-19 CNS, over 100 µM; in the test with SF-539 CNS, 63.1 µM.
As to `N#C/C(N)=C(\C#N)N=CNc1ccccc1N`, the TGI with BT-549 breast, with 786-0 renal, with HS 578T breast, in the test with A498 renal, in the test on SW-620 colon and in the test with T-47D breast was over 100 µM in each case. Besides, the TGI with DU-145 prostate, in the test with COLO 205 colon, in the test with SNB-19 CNS and in the test on SF-539 CNS was over 100 µM each time.
Consider `CCC(C)(C)c1ccc(Oc2cccc(C(=O)O)c2)cc1`, for which the TGI with BT-549 breast, in the test on 786-0 renal, with HS 578T breast, with A498 renal, in the test with SW-620 colon and in the test on T-47D breast was over 100 µM in each case. In addition, the TGI in the test with DU-145 prostate, with COLO 205 colon, in the test on SNB-19 CNS and with SF-539 CNS was over 100 µM throughout.
Take `O=C(NO)c1ccc(OCc2ccccc2)cc1`: the TGI was over 100 µM in the test with BT-549 breast; 55.3 µM with 786-0 renal; over 100 µM in the test on HS 578T breast; 43.4 µM with A498 renal; over 100 µM in the test on SW-620 colon; 81.5 µM in the test on T-47D breast. Besides, the TGI in the test on DU-145 prostate is 68.9 µM; with COLO 205 colon, 77.6 µM; in the test with SNB-19 CNS, over 100 µM; in the test on SF-539 CNS, over 100 µM.
`CC(C)(C)OC(=O)N1C(=O)OC[C@@H]2C=C[C@@H]21`: the TGI in the test with BT-549 breast, with 786-0 renal, in the test with HS 578T breast, with A498 renal, in the test with SW-620 colon and in the test on T-47D breast was over 100 µM in each case. The TGI with DU-145 prostate, in the test with COLO 205 colon, with SNB-19 CNS and in the test on SF-539 CNS was over 100 µM in each case.
Take `COc1ccc2nc(-c3ccc(O)cc3)cn2c1`: the TGI with BT-549 breast, in the test on 786-0 renal, in the test on HS 578T breast, in the test with A498 renal, in the test on SW-620 colon and in the test with T-47D breast was over 100 µM each time. For the same compound, the TGI in the test on DU-145 prostate, in the test with COLO 205 colon, in the test on SNB-19 CNS and in the test with SF-539 CNS was over 100 µM in each case.
